The source of these data is US8217155B2 (Gilead Colorado, Inc., priority 2007, dated 2012).

Data set [1] deals with T1, human ETB receptors expressed in CHO cells (Homo sapiens, UniProt P24530).
T1 construct: expressed in transfected cells; host or cells: CHO cells (membranes)
T1 sequence (P24530 27-442): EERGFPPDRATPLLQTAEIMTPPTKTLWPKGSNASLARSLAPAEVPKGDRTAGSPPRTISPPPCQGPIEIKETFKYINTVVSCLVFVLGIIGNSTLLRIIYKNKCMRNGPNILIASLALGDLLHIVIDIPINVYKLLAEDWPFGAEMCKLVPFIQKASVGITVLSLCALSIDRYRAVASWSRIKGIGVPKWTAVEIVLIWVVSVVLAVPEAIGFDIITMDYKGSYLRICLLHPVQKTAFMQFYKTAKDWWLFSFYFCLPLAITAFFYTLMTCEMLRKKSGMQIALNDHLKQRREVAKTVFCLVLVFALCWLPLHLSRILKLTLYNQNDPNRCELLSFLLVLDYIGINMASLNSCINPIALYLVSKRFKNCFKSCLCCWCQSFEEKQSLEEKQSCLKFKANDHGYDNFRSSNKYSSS
Description: In vitro ETB receptor binding, [125I]-labeled ET-3 displacement. The conditions noted are these: incubation time 30 minutes, not steady-state; read-out: Ki ± SE, ETB. The procedure: (§1) The test compounds are dissolved at 10^−2M in methanol: Cremophor EL® 100:1 and diluted in deionized water to concentrations of […] to 10^−6 M. Binding reactions are initiated by addition of [^125I]-labeled ET-1 or [^125I]-labeled ET-3 for the ETA and ETB receptors, respectively, after 2 minutes preincubation of the membranes in the presence of Metabolite B or Metabolite C. The specific radioligand binding to each receptor is calculated as the difference between total binding and non-specific binding, determined in the presence of an excess of unlabeled ET-1. IC; values are determined by nonlinear curve fitting from experiments performed with 3 concentrations of test compound.

The target in data set [2] is T2, human ETA receptors expressed in CHO cells (Homo sapiens, UniProt P25101).
T2 construct: expressed in transfected cells; host or cells: CHO cells (membranes)
T2 sequence (P25101 21-427): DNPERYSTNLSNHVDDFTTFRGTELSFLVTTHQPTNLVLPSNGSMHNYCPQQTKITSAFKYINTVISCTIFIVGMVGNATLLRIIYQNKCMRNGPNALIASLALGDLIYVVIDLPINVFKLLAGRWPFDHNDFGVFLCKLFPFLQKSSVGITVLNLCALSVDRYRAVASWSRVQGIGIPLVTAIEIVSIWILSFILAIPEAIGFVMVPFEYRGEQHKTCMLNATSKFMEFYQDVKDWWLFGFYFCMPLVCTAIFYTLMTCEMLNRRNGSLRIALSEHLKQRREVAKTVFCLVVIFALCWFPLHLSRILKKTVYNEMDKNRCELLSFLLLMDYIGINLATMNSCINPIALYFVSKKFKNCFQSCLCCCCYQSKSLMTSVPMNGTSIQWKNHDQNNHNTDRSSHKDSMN
In words: In vitro ETA receptor binding, [125I]-labeled ET-1 displacement. The conditions noted are these: incubation time 30 minutes; for affinity for the ETA receptor relative to that for the ETB receptor: CHO cells; for Ki: not steady-state, read-out: Ki ± SE, ETA. The procedure:
as §1

Data set [3] is described as follows: In vivo excretion in dogs. The conditions noted are these: dog, after single 3 mg/kg oral dose of ambrisentan.
Data set [4] in a line: Biliary excretion in dogs. The note with it: 10 mg/kg intraduodenal, eight hours post-administration.
For a further data set, the target named is T3, ETA receptor (Homo sapiens, UniProt P25101).
T3 construct: Studies performed in human ventricular tissue with ambrisentan; from tissue; host or cells: human ventricular tissue
T3 sequence (P25101 21-427): T2 sequence (P25101 21-427)
The conditions noted are these: human ventricular tissue; cited from earlier work.

Data set [5] in a line: In vitro metabolism in liver microsomes (phase I). The format is in vitro ADME. The note with it: rat, dog, and human liver microsomes. A general note: Microsomes from liver hold many membrane-bound enzymes, among them those of drug oxidation.
The nature of data set [6]: In vitro metabolism in human hepatocytes. The format is in vitro ADME. The note with it: 24-hour period.
For data set [7] the following is noted: cited from earlier work.
Data set [8] is described as follows: Isolated perfused rat liver model. The format is in vitro ADME, male Wistar rats. The conditions noted are these: for cumulative excretion of total radioactivity in the bile: six hours; for decrease of total radioactivity in the perfusate: six hours post-dose. Here is the method: The metabolic pathways of ambrisentan in male Wistar rats are investigated using the isolated perfused rat liver model. […] The livers are removed from 2 animals in each dose group and perfused in a recirculating system for 6 hours and the metabolite pattern of the perfusion medium and bile determined.

Data set [9] can be described thus: In vivo excretion in rats. The conditions noted are these: ADME studies.
Data set [10] is described as follows: Biliary excretion and enterohepatic circulation in rats. It is filed as in vivo, male rats. The procedure:
Bile and urine are collected over a 24-hour period. […] To assess enterohepatic circulation, a second set of rats (acceptor rats) is intraduodenally dosed with pooled bile (0-12 hour period) from the first set of rats (donor rats), and bile and urine are again collected over a 24-hour period. […] The metabolite patterns in bile from donor and acceptor rats are similar.

Data set [11] in a line: In vitro metabolism in dog hepatocytes. The conditions noted are these: 24-hour period.
In the next data set the test system is CYP isoenzymes. In words: Reaction phenotyping with microsomes expressing single CYP isoenzymes. It is filed as in vitro ADME. The text has this: (§2) Reaction phenotyping using microsomes expressing single CYP isoenzymes or uridine diphosphate glucuronosyl transferase (UGT) isoenzymes are used to identity those enzymes that are sufficient to metabolize ambrisentan in vitro.

In data set [12] the test system is uridine diphosphate glucuronosyl transferase (UGT) isoenzymes. In words: Reaction phenotyping with microsomes expressing single UGT isoenzymes. The format is in vitro ADME.
Description: as §2

Data set [13] can be described thus: In vitro metabolism in rat hepatocytes. It is filed as in vitro ADME. The note with it: 24-hour period.
For data set [14] the following is noted: dog, in vivo, po, 3 mg/kg.
For data set [15] the following is noted: both, dog, in vivo, 10 mg/kg.
For data set [16] the following is noted: dog, human, 24 h.
[17] abbreviates: donor rats, intraduodenal, within 24 hours.

Read-outs that look alike come from different tables or passages of the source.

Broadly, the Ki is the equilibrium dissociation constant of an inhibitor or competing ligand from its target.

As to `Cc1cc(C)nc(OC(C(=O)O)C(O)(c2ccccc2)c2ccccc2)n1` (racemic) [Metabolite C], the values for the inhibitory constant (Ki) in data set [1] and in [2] were 0.556 ± 0.0436 µM and 0.0222 ± 0.0042 µM, respectively. Besides, the “affinity for the ETA receptor relative to that for the ETB receptor” value in data set [2] is “about 100 times”.

Take `Cc1cc(C)nc(O)n1` [4,6-dimethyl-2hydroxypyrimidine, 4,6-dimethyl-2-hydroxypyrimidine]: the “metabolite pattern in excreta” value in data set [3] is on record as “main metabolite in urine”.

For the molecule `COC(c1ccccc1)(c1ccccc1)[C@H](Oc1nc(C)cc(C)n1)C(=O)O` [Ambrisentan, (S)-2-[(4,6-dimethylpyrimidin-2-yl)oxy]-3-methoxy-3,3-diphenylpropionic acid], the figures for the “total radioactivity excreted into the bile” value in data set [4] (female dogs) and in [4] (male dogs) were 47% and 54%, respectively. Besides, the “affinity for the ETA receptor” value at ETA receptor is recorded as “high affinity (low Ki)”. Also, the “turnover of parent compound to hydroxylated metabolite (Metabolite B)” value in [5] is listed as 3-4%. Further, the figures for the “radiolabeled ambrisentan metabolized by phase II pathway” value in [6] and in data set [11] were 21% and 25%, respectively. The “mean 6MWD, mean increase from baseline” value in data set [7] (all patients, after 12 weeks of treatment) is on record as 36 meters. Besides, in data set [7] (phase II trials, all four dose groups), the “primary efficacy endpoint (exercise capacity measured by 6MWD)” value was “statistically significant and clinically meaningful increase”. In addition, the “cumulative excretion of total radioactivity in the bile” value in [8] (3 mg/kg dose) is on record as 25%; in data set [8] (10 mg/kg dose), 30%; in data set [8] (30 mg/kg dose), 31%. Moreover, the entries for the “decrease of total radioactivity in the perfusate” value in [8] (3 mg/kg dose), in data set [8] (10 mg/kg dose) and in data set [8] (30 mg/kg dose) were 55%, 55% and 45%, respectively. In [2], the Ki was found to be 0.00063 ± 0.0002 µM. The “share of parent compound among metabolic species in feces” value in [9] was “ca. 80%”. For the same molecule, the “total radioactivity recovered in the bile of acceptor rats” value in [10] (acceptor rats dosed intraduodenally with pooled donor bile, 24-hour period) was 76.5-94%. Moreover, the “total radioactivity recovered from the bile” value in data set [10] (setting [17]) was found to be 94.8%. Further, the “total radioactivity recovered from the urine” value in data set [10] (setting [17]) was 1.5%. Further, the “share of parent compound among metabolic species in bile” value in data set [10] (rats, biliary excretion study) turned out to be 95%. In addition, in the data set with CYP isoenzymes, the “CYP isoenzymes that oxidatively metabolize the compound” value is “CYP3A4, CYP2C19, and CYP3A5”. Also, the “UGT isoenzymes that glucuronidate the compound” value in data set [12] is “UGT1A9S, UGT2B7S, and UGT1A3S”. For the same molecule, the “metabolized by phase II pathway” value in data set [13] was found to be 15%.

`COC(c1ccccc1)(c1ccccc1)[C@H](Oc1nc(C)cc(C)n1)C(=O)O[C@@H]1O[C@H](C(=O)O)[C@@H](O)[C@H](O)[C@H]1O` [Metabolite A, (2S,3S,4S,5R,6S)-6-((S)-2-(4,6-Dimethylpyrimidin-2-yloxy)-3-methoxy-3,3-diphenylpropanoyloxy)-3,4,5-trihydroxytetrahydro-2H-pyran-2-carboxylic acid]: the “metabolite pattern in excreta” value in data set [14] is reported as “main metabolite in feces”. Also, the “share of the total radioactivity in bile” value in data set [15] is 77-81%.

Regarding `COC(c1ccccc1)(c1ccccc1)[C@H](Oc1nc(C)cc(CO)n1)C(=O)O` [Metabolite B, (S)-2-(4-(Hydroxymethyl)-6-methylpyrimidin-2-yloxy)-3-methoxy-3,3-diphenylpropanoic acid], the Ki in data set [1] is 4.1 ± 0.322 µM. Moreover, in [2], the “affinity for the ETA receptor relative to that for the ETB receptor” value is recorded as “about 100 times” and the Ki is 0.0403 ± 0.0061 µM. Further, in data set [16], the “amount of hydroxylated metabolite detected” value is given as below 1%.
